Legend:
[1] = Nucleic acid encapsulation rate of nucleic acid lipid particles (FVII-siRNA); format: physicochemical
Protocol: A 3 mol/L aqueous sodium acetate solution (30 μL) and 9 μL of glycogen were added to 60 μL of the lipid particles retaining nucleic acids, and then 1.5 mL of ethanol was added thereto such that only the nucleic acids were precipitated while the lipid was dissolved. Then, the supernatant was removed by centrifugation. After the precipitates were air-dried for 15 minutes or longer, water was added thereto such that the precipitates were redissolved, and the concentration thereof was measured using Nanodrop NF1000 (Thermo Fisher Scientific), thereby quantifying the total nucleic acid concentration.
The nucleic acid concentration was quantified using a Quant-iT RiboGreen RNA Assay Kit (Thermo Fisher Scientific) according to the protocol. First, a 20×TE buffer included in the above kit was diluted with water, thereby obtaining a 1×TE buffer. TE represents Tris/EDTA (ethylenediaminetetraacetic acid). In order to quantify only the nucleic acid in the outer water phase, the dispersion liquid of lipid particles retaining nucleic acids was diluted 10,000× with the 1×TE buffer.
The 10,000× diluted dispersion liquid of lipid particles (100 μL) was put in a 96-well plate, then 100 μL of a RiboGreen reagent (reagent included in the Quanti-iT Ribogreen RNA Assay Kit described above) diluted 2000× with the 1×TE buffer was added to a sample, and fluorescence (excitation wavelength: 485 nm, fluorescence wavelength: 535 nm) was measured using a plate reader Infinit EF200 (TECAN), thereby quantifying the nucleic acid concentration in the outer water phase.
By using the total nucleic acid concentration obtained through the above steps and the quantified nucleic acid concentration in the outer water phase, the nucleic acid encapsulation rate of the nucleic acid lipid particles was calculated according to the following Equation. Nucleic acid encapsulation rate (%)=(total nucleic acid concentration−nucleic acid concentration in outer water phase)/total nucleic acid concentration×100 The results are shown in Table 2.
(§1) The Factor VII (FVII) protein was measured according to the method described in Nature Biotechnology (2010) 28, 172-176. C57BL6/J mice were randomly grouped (n=3). A dispersion liquid of nucleic acid lipid particles was prepared by the same method as that in <Preparation of nucleic acid lipid particles>, except that FVII-siRNA having the sequence described in Molecular Therapy (2009) 17, p. 878 was used instead of Luc-siRNA. The dispersion liquid was administered to the caudal vein of the mice at a dosage of 0.1 mg/kg. For comparison, PBS at the same volume was administered to the caudal vein of the mice. Twenty four hours after the administration, blood was collected from the caudal vena cava, thereby obtaining plasma. The amount of FVII protein was quantified using the obtained plasma and a Biophen FVII assay kit (Aniara).

[2] = Encapsulation rate of siRNA in nucleic acid lipid particles (Luc2-siRNA); format: physicochemical; conditions: compound/DSPC/cholesterol/DMG-PEG2000 50/10/38.5/1.5
How it was run: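 Encapsulation rate was calculated as (total − outer-phase siRNA)/total ×100. Total siRNA was quantified spectrophotometrically after lipid-dissolving ethanol precipitation, and unencapsulated siRNA by RiboGreen in TE (ex 485/em 535 nm). The particles were test lipid/DSPC/cholesterol/DMG-PEG2000 at 50/10/38.5/1.5, formed by microfluidic mixing with Luc2-siRNA at pH 4 and dialyzed against PBS.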

[3] = tested on: DMS273 cells constantly expressing Luc; assay: Target reporter protein (Luc) knockdown in cell, reporter protein assay; format: cell-based; conditions: Homo sapiens, DMS-273; Luc2-siRNA lipid particles using the compound; siRNA 0.1 to 100 nmol/L; concentration at which Luc expression is knocked down to 50%; read-out: IC50
How it was run: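 Nucleic acid lipid particles added at final 0.1 to 100 nmol/L to DMS273 human SCLC cells stably expressing Luc2, 24 hr exposure then 24 hr further culture after medium change. Luc quantified by Steady Glo luminescence after viable cell count; knockdown efficiency calculated and IC50 taken as concentration giving 50% Luc reduction.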

[4] = tested on: Factor VII (FVII) protein; assay: Measurement of Factor VII (FVII) protein in mouse plasma after FVII-siRNA lipid particles; format: in vivo, C57BL6/J mice; conditions: 0.1 mg/kg caudal vein, plasma 24 hours after administration, PBS group = 100%
Protocol: as §1
The FVII amount in the plasma sample of each individual in the PBS administration group was regarded as 100%, and the ratio of the FVII amount in the plasma sample of each individual to 100% was adopted as a measurement value.

[5] = Particle size of nucleic acid lipid particles (Luc2-siRNA); format: physicochemical; conditions: compound/DSPC/cholesterol/DMG-PEG2000 50/10/38.5/1.5
How it was run: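 Particle size was read by ELS-Z2 light scattering on nucleic acid lipid particles after dialysis against PBS. These were made by micromixing Luc2-siRNA (19.7 μmol/L, pH 4 acetate) with ethanolic lipids (test lipid/DSPC/cholesterol/DMG-PEG2000 50/10/38.5/1.5, 20 mmol/L) at 3:1 water:oil, siRNA/lipid 339 mol/mol.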

[6] = Particle size of nucleic acid lipid particles (FVII-siRNA); format: physicochemical
Protocol: The compounds described in Table 2, L-α-distearoylphosphatidylcholine (trade name: COATSOME® MC-8080; NOF corporation), cholesterol (trade name: Choesterol HP; NIPPON FINE CHEMICAL CO., LTD.), and 1,2-dimyristoyl-rac-glycero-3-(methylpolyoxyethylene 2000) (hereinafter, called DMG-PEG2000) (trade name: SUNBRIGHT® GM-020; NOF corporation) were dissolved in ethanol at a molar ratio of 50/10/38.5/1.5 such that the total lipid concentration became 20 mmol/L, thereby obtaining an oil phase.
An aqueous nucleic acid solution obtained by dissolving 5 mg of Luc2-siRNA having the sequence described in Biomacromolecules (2013) 14, p. 3905 in 1 mL of sterile water was diluted with 10 mmol/L acetate buffer having a pH 4 such that the nucleic acid concentration became 19.7 μmol/L, thereby obtaining a water phase. Then, the water phase and the oil phase were mixed together by a micromixer (see JP5288254B) using a syringe pump such that the volume ratio of water phase:oil phase became 3:1 (final ratio of siRNA/lipid=339 (mol/mol)), and the mixed solution was diluted 2× with PBS, thereby obtaining a dispersion liquid of nucleic acid lipid particles. The dispersion liquid was dialyzed (Slide-A-Lyzer G2, MWCO: 10 kD, Thermo Fisher Scientific) using a phosphate buffered saline such that ethanol was removed, thereby obtaining nucleic acid lipid particles.
The particle size of the nucleic acid lipid particles was measured by the same method as that in <Preparation of lipid particles>.
as §1

Row | Structure (SMILES) | Nucleic acid encapsulation rate [1] | Nucleic acid encapsulation rate [2] | IC50 [3] | Relative amount of FVII protein (%) [4] | Particle size (nm) [5] | Particle size (nm) [6]
1 | CCCCC/C=C\C/C=C\CCCCCCCCC(CCCCCCCC/C=C\C/C=C\CCCCC)OC(=O)OCCN(C)CCN(CC)CC [Example 23, 2-((2-(Diethylamino)ethyl)(methyl)amino)ethyl((6Z,9Z,28Z,31Z)-heptatriaconta-6,9,28,31-tetraen-19-yl)carbonate] | 57% | 85% | 0.039 µM | 39% | 69.2 nm | 75.4 nm
2 | CCCCC/C=C\C/C=C\CCCCCCCCC(CCCCCCCC/C=C\C/C=C\CCCCC)OC(=O)OCCN(CC)CCN(C)C [Example 24, 2-((2-(Dimethylamino)ethyl)(ethyl)amino)ethyl((6Z,9Z,28Z,31Z)-heptatriaconta-6,9,28,31-tetraen-19-yl)carbonate] | 67% | 88% | 0.041 µM | 24% | 62.0 nm | 66.2 nm
3 | CCCCC/C=C\C/C=C\CCCCCCCCC(CCCCCCCC/C=C\C/C=C\CCCCC)OC(=O)OCCN(CC)CCN(CC)CC [Example 30, 2-((2-(Diethylamino)ethyl)(ethyl)amino)ethyl((6Z,9Z,28Z,31Z)-heptatriaconta-6,9,28,31-tetraen-19-yl)carbonate] | 88% | 78% | 0.024 µM | 5% | 69.8 nm | 73.6 nm
4 | CCCCC/C=C\C/C=C\CCCCCCCCC(CCCCCCCC/C=C\C/C=C\CCCCC)OC(=O)OCCN(CCC)CCN(C)C [Example 31, 2-((2-(Dimethylamino)ethyl)(propyl)amino)ethyl((6Z,9Z,28Z,31Z)-heptatriaconta-6,9,28,31-tetraen-19-yl)carbonate] | 80% | 78% | 0.038 µM | 14% | 67.9 nm | 73.5 nm
5 | CCCCC/C=C\C/C=C\CCCCCCCCC(CCCCCCCC/C=C\C/C=C\CCCCC)OC(=O)OCCN(CCCCC)CCN(C)C [Example 40, 2-((2-(Dimethylamino)ethyl)(pentyl)amino)ethyl((6Z,9Z,28Z,31Z)-heptatriaconta-6,9,28,31-tetraen-19-yl)carbonate] | 75% | 75% | 0.015 µM | 3% | 73.7 nm | 66.6 nm
6 | CCCCCCCC/C=C\CCCCCCCC(=O)OCCCCCCC(CCCCCCOC(=O)CCCCCCC/C=C\CCCCCCCC)OC(=O)OCCN(CCCCCC)CCN(C)C [Example 43] | 87% | 78% | 0.019 µM | 11% | 74.5 nm | 75.3 nm
7 | CCCCC/C=C\C/C=C\CCCCCCCC(=O)OCCCCCCC(CCCCCCOC(=O)CCCCCCC/C=C\C/C=C\CCCCC)OC(=O)OCCN(CC)CCN(CC)CC [Example 45, 7-(((2-((2-(Diethylamino)ethyl)(ethyl)amino)ethoxy)carbonyl)oxy)tridecane-1,13-diyl(9Z,9′Z,12Z,12′Z)-bis(octadeca-9,12-dienoate)] | 79% | 76% | 0.022 µM | 16% | 71.7 nm | 71.5 nm
8 | CCCCCC/C=C\CCCCCCCC(=O)OCCCCCCC(CCCCCCOC(=O)CCCCCCC/C=C\CCCCCC)OC(=O)OCCN(CC)CCN(CC)CC [Example 46, 7-(((2-((2-(Diethylamino)ethyl)(ethyl)amino)ethoxy)carbonyl)oxy)tridecane-1,13-diyl(9Z,9′Z)-bis(hexadec-9-enoate)] | 84% | 80% | 0.017 µM | 18% | 71 nm | 68.4 nm
9 | CCCCCCCC(=O)OCCN(CCOC(=O)OC(CCCCCC)CCCCCCCCC(=O)OCCC(CCCCC)CCCCC)CCN(CC)CC (centres unmarked) [Example 125, 3-Pentyloctyl 3-ethyl-12-hexyl-6-(2-(octanoyloxy)ethyl)-10-oxo-9,11-dioxa-3,6-diazahenicosan-21-oate] | 80% | 76% | – | 5% | 73.8 nm | 77.8 nm
10 | CCCCCCCCC(=O)OCCN(CCOC(=O)OC(CCCCCC)CCCCCCCCC(=O)OCCC(CCCCC)CCCCC)CCN(CC)CC (centres unmarked) [Example 126, 3-Pentyloctyl 3-ethyl-12-hexyl-6-(2-(nonanoyloxy)ethyl)-10-oxo-9,11-dioxa-3,6-diazahenicosan-21-oate] | 85% | 75% | – | 9% | 66.8 nm | 74.2 nm
11 | CCCCCCCCC(=O)OCCN(CCOC(=O)OC(CCCCCC)CCCCCCCCC(=O)OCC(CCCCC)CCCCC)CCN(CC)CC (centres unmarked) [Example 130, 2-Pentylheptyl 3-ethyl-12-hexyl-6-(2-(nonanoyloxy)ethyl)-10-oxo-9,11-dioxa-3,6-diazahenicosan-21-oate] | 68% | 66% | – | 9% | 64.9 nm | 74.1 nm
12 | CCCCCCCC(CCCCCCC)COC(=O)CCCCCCCCC(CCCCCC)OC(=O)OCCN(CCN(CC)CC)C(C)C (centres unmarked) [Example 133, 2-Heptylnonyl 3-ethyl-12-hexyl-6-isopropyl-10-oxo-9,11-dioxa-3,6-diazahenicosan-21-oate] | 78% | 78% | – | 16% | 75.8 nm | 75.8 nm

Source: patent publication US12370143B2, “Compound or salt thereof and lipid particles” (FUJIFILM Corporation, priority 2018, dated 2025)
